Test system: phospho-p90 RSK (RSK1 Thr359/Ser363) in A375 (Braf V600E) cells
Experiment: Phospho-p90 RSK ELISA using A375 (Braf V600E) cells
Assay type: cell-based
Conditions: Homo sapiens, A-375, 2 hours compound treatment, read-out: Cellular Phospho-p90RSK IC50
Method: In preparation for the assay, an ELISA plate with the pre-coated goat anti-mouse antibody (Thermo Scientific) was treated with a mouse anti-human RSK1 antibody (monoclonal, Invitrogen) at 1:800 dilution (150 ng/well) in PBS, and the plate was placed on a plate shaker at 4° C. overnight. […] After two […] of the compound treatment, the supernatant was removed from the cell plate, and cells were lysed in 100 μl per well of cell lysis buffer (Cell Signaling Technologies) containing phosphatase and protease inhibitors (Cell Signaling Technologies) on a plate shaker at 4° C. for 20 minutes. The ELISA plate was washed four times with ELISA wash buffer (Thermo Scientific) prior to addition of 100 μL cell lysate. The lysate was incubated on the ELISA plate with gentle shaking at room temperature for 2 hours. The contents of the wells were removed, and the ELISA plate was washed four times with wash buffer, and incubated with 100 μL per well of anti-phospho-RSK1 (Thr359/Ser363) rabbit monoclonal antibody (Millipore) at dilution of 1:1000 in StartingBlock buffer (Thermo Scientific) on a plate shaker at room temperature for 1 hour. The contents of the wells were removed, the ELISA plate was washed four times with wash buffer, and was incubated with 100 μL per well of goat anti-rabbit HRP (Thermo Scientific) at dilution of 1:3000 in StartingBlock buffer (Thermo Scientific) on a plate shaker at room temperature for 1 hour. The contents of the wells were removed, the ELISA plate was washed four times with wash buffer, and then incubated with 100 μL per well of TMB substrate solution (Thermo Scientific) on a plate shaker at room temperature for 20 minutes. Finally, 100 μL of TMB stop solution (Thermo Scientific) was added to each well and the absorbance is measured at 450 nm on a Tecan plate reader.

SMILES	IC50 [µM]
COc1ncc(-c2n[nH]c3cc4c(cc23)CN(Cc2ccc(F)cc2)C(=O)N4)cn1 [Example 72]	≤ 0.25
COc1ccc(-c2n[nH]c3cc4c(cc23)CN([C@@H]2CN(C)C[C@H]2c2ccccc2)C(=O)N4)cn1 (mixture of isomers) [Example 353]	≤ 0.25
Cc1cc(-c2n[nH]c3cc4c(cc23)CN([C@@H]2CCCN(CC(O)C(C)(C)C)C2)C(=O)N4)ccn1 (stereo partly shown) [Example 236]	> 1
Cn1nccc1-c1n[nH]c2cc3c(cc12)CN([C@@H]1CCCN(Cc2ccccc2)C1)C(=O)N3 [Example 261]	≤ 0.25
Cc1cc(-c2n[nH]c3cc4c(cc23)CN(CCC2CCOCC2)C(=O)N4)ccn1 [Example 220]	≤ 0.25
Cc1cc(-c2n[nH]c3cc4c(cc23)CN([C@H]2CCCN(Cc3ccccc3)C2)C(=O)N4)cc(C)n1 [Example 363]	> 1
Cc1cc(-c2n[nH]c3cc4c(cc23)CN(CCc2ccc(F)cc2)CC(=O)N4)ccn1 [Example 67]	> 1
Cc1cc(-c2n[nH]c3cc4c(cc23)CN(CCN(C)C)C(=O)N4)ccn1 [Example 46]	> 1
O=C1Nc2cc3[nH]nc(-c4ccnnc4)c3cc2CN1[C@@H]1CCCN(Cc2ccccc2F)C1 [Example 121]	≤ 0.25
Cc1cc(-c2n[nH]c3cc4c(cc23)CN(C2CCN(Cc3ccccc3)CC2)C(=O)N4)ccn1 [Example 70]	0.25 to 1
O=C1Nc2cc3[nH]nc(-c4ccnnc4)c3cc2CN1Cc1cccc(C(F)(F)F)c1 [Example 124]	0.25 to 1
Cc1cc(-c2n[nH]c3cc4c(cc23)CN([C@@H]2CN(C3CCOCC3)C[C@H]2c2ccccc2)C(=O)N4)ccn1 (mixture of isomers) [Example 359]	0.25 to 1
Cc1cc(-c2n[nH]c3cc4c(cc23)CN(CCNCc2cccc(Cl)c2)C(=O)N4)ccn1 [Example 176]	0.25 to 1
Cc1ccc(CN2CCC[C@@H](N3Cc4cc5c(-c6ccnc(C)c6)n[nH]c5cc4NC3=O)C2)cn1 [Example 131]	> 1
C[C@H](c1cccc(Cl)c1)N1Cc2cc3c(-c4ccnnc4)n[nH]c3cc2NC1=O [Example 111]	0.25 to 1
Cc1cc(-c2n[nH]c3cc4c(cc23)CN([C@@H]2CN(CCC#N)C[C@H]2c2ccccc2)C(=O)N4)ccn1 (mixture of isomers) [Example 356]	≤ 0.25
Cc1cc(-c2n[nH]c3cc4c(cc23)CN(C2CCN(CCc3ccccc3)CC2)C(=O)N4)ccn1 [Example 157]	> 1
O=C1Nc2cc3[nH]nc(-c4ccnnc4)c3cc2CN1[C@@H]1CCCN(Cc2c(F)cccc2F)C1 [Example 122]	≤ 0.25
Cc1cc(-c2n[nH]c3cc4c(cc23)CN([C@@H]2CCN(CCC(C)C)C2)C(=O)N4)ccn1 [Example 207]	0.25 to 1
Cc1cc(-c2n[nH]c3cc4c(cc23)CN(Cc2cccc(C#N)c2)C(=O)N4)ccn1 [Example 55]	≤ 0.25
Cc1cc(-c2n[nH]c3cc4c(cc23)CN(CC2CCOCC2)C(=O)N4)cc(C)n1 [Example 250]	≤ 0.25
Cc1cc(-c2n[nH]c3cc4c(cc23)CN([C@@H]2CN(C)C[C@H]2C(C)C)C(=O)N4)ccn1 (mixture of isomers) [Example 327]	> 1

SMILES	IC50 [µM]
Cc1cc(-c2n[nH]c3cc4c(cc23)CN([C@H]2CCCN(CC(F)(F)F)C2)C(=O)N4)ccn1 [Example 309]	0.25 to 1
Cn1cc(-c2n[nH]c3cc4c(cc23)CN([C@@H]2CCN(CC(F)(F)F)C2)C(=O)N4)cn1 [Example 259]	≤ 0.25
Cc1cc(-c2n[nH]c3cc4c(cc23)CN([C@@H]2CCN(c3cccc(Cl)c3)C2)C(=O)N4)ccn1 [Example 249]	≤ 0.25
Cc1cc(-c2n[nH]c3cc4c(cc23)CN(Cc2nccs2)C(=O)N4)ccn1 [Example 56]	0.25 to 1
Cc1cc(-c2n[nH]c3cc4c(cc23)CN(C(C)C2CCCC2)C(=O)N4)ccn1 (stereo not shown) [Example 294]	≤ 0.25
Cc1cc(-c2n[nH]c3cc4c(cc23)CN([C@@H]2CN(Cc3ccccc3)CC(F)(F)C2)C(=O)N4)ccn1 [Example 263]	> 1
Cc1cc(-c2n[nH]c3cc4c(cc23)CN([C@@H]2CCCN(CCc3ccc(F)cc3)C2)C(=O)N4)ccn1 [Example 167]	> 1
COc1ncc(-c2n[nH]c3cc4c(cc23)CN(CCc2cccc(Cl)c2)C(=O)N4)cn1 [Example 86]	≤ 0.25
Cc1cc(-c2n[nH]c3cc4c(cc23)CN([C@@H]2CN(CC(F)(F)F)C[C@H]2C)C(=O)N4)ccn1 (racemic) [Example 302]	≤ 0.25
Cc1cc(-c2n[nH]c3cc4[nH]c(=O)c(C(C)C5CCCCC5)cc4cc23)ccn1 (stereo not shown) [Example 160]	> 1
COc1ncc(-c2n[nH]c3cc4c(cc23)CN(Cc2cc(F)cc(F)c2)C(=O)N4)cn1 [Example 88]	≤ 0.25
Cc1cc(-c2n[nH]c3cc4c(cc23)CN(CCc2cccc(Cl)c2)C(=O)N4)ccn1 [Example 50]	≤ 0.25
Cc1cc(-c2n[nH]c3cc4c(cc23)CN([C@@H]2CCN(CC3CCCC3)C2)C(=O)N4)ccn1 [Example 206]	> 1
Cc1cc(-c2n[nH]c3cc4c(cc23)CN(CCN2CCOCC2)C(=O)N4)ccn1 [Example 51]	> 1
COc1cccc(F)c1CN1CCC[C@@H](N2Cc3cc4c(-c5ccnnc5)n[nH]c4cc3NC2=O)C1 [Example 126]	≤ 0.25
COc1ncc(-c2n[nH]c3cc4c(cc23)CN(Cc2cccc(C#N)c2)C(=O)N4)cn1 [Example 125]	0.25 to 1
Cc1cc(-c2n[nH]c3cc4c(cc23)CN([C@@H]2CCCN(CCc3cccc(Cl)c3)C2)C(=O)N4)ccn1 [Example 164]	> 1
Cc1ccc(-c2n[nH]c3cc4c(cc23)CN(Cc2cccc(Cl)c2)C(=O)N4)cn1 [Example 58]	≤ 0.25
Cc1cc(-c2n[nH]c3cc4c(cc23)CN([C@@H]2CCCN(Cc3ccc(F)s3)C2)C(=O)N4)ccn1 [Example 290]	≤ 0.25
Cc1cc(-c2n[nH]c3cc4c(cc23)CN([C@@H]2CCCN(Cc3cnccc3C)C2)C(=O)N4)ccn1 [Example 183]	0.25 to 1
Cc1cc(-c2n[nH]c3cc4c(cc23)CN(CCO)C(=O)N4)ccn1 [Example 43]	> 1
Cc1cc(-c2n[nH]c3cc4[nH]c(=O)c(C5CCCC5)cc4cc23)ccn1 [Example 289]	0.25 to 1

SMILES	IC50 [µM]
Cn1cc(-c2n[nH]c3cc4c(cc23)CN([C@@H]2CN(CC(F)(F)F)C[C@H]2c2ccccc2)C(=O)N4)ccc1=O [Example 346]	≤ 0.25
Cc1cc(-c2n[nH]c3cc4c(cc23)CN(C2CN(CCc3ccccc3)C2)C(=O)N4)ccn1 [Example 192]	0.25 to 1
Cc1cc(-c2n[nH]c3cc4c(cc23)CN([C@@H]2CN(CC(F)(F)F)C[C@H]2C2CC2)C(=O)N4)ccn1 (mixture of isomers) [Example 319]	0.25 to 1
Cc1cc(-c2n[nH]c3cc4c(cc23)CN([C@@H]2CCCN(CCC3CC3)C2)C(=O)N4)ccn1 [Example 155]	0.25 to 1
Cc1cc(-c2n[nH]c3cc4c(cc23)CN([C@@H]2CCCN(C3CCCCC3)C2)C(=O)N4)ccn1 [Example 194]	0.25 to 1
Cc1cc(-c2n[nH]c3cc4c(cc23)CN(Cc2ccccc2)C(=O)N4)ccn1 [Example 372]	≤ 0.25
Cc1cc(-c2n[nH]c3cc4[nH]c(=O)c([C@@H](C)c5ccc(F)cc5)cc4cc23)ccn1 [Example 287]	0.25 to 1
O=C1Nc2cc3[nH]nc(-c4ccc(F)cc4)c3cc2CN1Cc1ccc(F)c(Cl)c1 [Example 40]	> 1
COc1ncc(-c2n[nH]c3cc4c(cc23)CN([C@H](C)c2cccc(Cl)c2)C(=O)N4)cn1 [Example 71]	≤ 0.25
Cc1cc(-c2n[nH]c3cc4c(cc23)CN([C@@H]2CCCN(CC3CC3)C2)C(=O)N4)ccn1 [Example 62]	0.25 to 1
CC(c1ccccc1)c1cc2cc3c(-c4ccc(=O)n(C)c4)n[nH]c3cc2[nH]c1=O (stereo not shown) [Example 347]	≤ 0.25
Cc1cc(-c2n[nH]c3cc4c(cc23)CN([C@@H]2CCCN(CCc3ccccc3)C2)C(=O)N4)ccn1 [Example 145]	0.25 to 1
Cc1ncc(-c2n[nH]c3cc4c(cc23)CN(Cc2cccc(Cl)c2)C(=O)N4)cn1 [Example 90]	≤ 0.25
COc1ncccc1CN1CCC[C@@H](N2Cc3cc4c(-c5ccnc(C)c5)n[nH]c4cc3NC2=O)C1 [Example 150]	≤ 0.25
Cc1cc(-c2n[nH]c3cc4c(cc23)CN([C@@H]2CCCN(CC(=O)C(C)(C)C)C2)C(=O)N4)ccn1 [Example 203]	0.25 to 1
O=C1Nc2cc3[nH]nc(C4CC4)c3cc2CN1Cc1ccc(F)c(Cl)c1 [Example 42]	> 1
Cc1cc(-c2n[nH]c3cc4c(cc23)CN(C2CCOCC2)C(=O)N4)ccn1 [Example 44]	0.25 to 1
O=C1Nc2cc3[nH]nc(-c4ccnnc4)c3cc2CN1Cc1ccc(F)cc1 [Example 97]	0.25 to 1
O=C1Nc2cc3[nH]nc(-c4cn[nH]c4)c3cc2CN1Cc1ccc(F)c(Cl)c1 [Example 48]	0.25 to 1
Cc1cc(-c2n[nH]c3cc4c(cc23)CN(CC2CCCN(Cc3ccccc3)C2)C(=O)N4)ccn1 (stereo not shown) [Example 208]	> 1

Reference: US10301317B2, “Inhibitors of ERK and methods of use” (Kura Oncology, Inc., priority 2013, dated 2019)
